Results taken from patent US7754683B2, “Bioactive peptide of bone morphogenetic protein-2” (priority 2005, dated 2010).
Square brackets hold non-standard residues; d marks the D form. Ends that are not written are not given here. pS = N[C@@H](COP(=O)(O)O)C(=O)O

Tested on: Wistar rats
Experiment: Experimental research on animal ectopic osteogenesis (peptide/collagen sponge implantation)
Assay type: in vivo
Details: for ectopic osteogenesis by CT scan imaging: 0.4 mg peptide on collagen sponge implanted in sacral spine muscles, CT at 3, 6, 8 weeks; for ectopic osteogenesis ability (overall result) / formation of new bone by histological examination (HE staining): 0.4 mg peptide/collagen sponge; for formation of new bone by histological examination (HE staining): eighth week
Description: The scaffold material is collagen sponge, the size of which is 5×5×5 mm^3. Three bone morphogenetic protein-2 active peptides are dissolved into saline solution, and then dropped on the collagen sponge in accordance with the 0.4 mg dose. Meanwhile, equivalent saline solution is dropped on the control pure collagen sponge, and freeze-dried for reserve after complete absorption.
(2) groups: 36 Wistar rats are randomly divided into three experimental groups, namely 0.4 mg bone morphogenetic protein-2 active peptide 1/collagen sponge group, 0.4 mg bone morphogenetic protein-2 active peptide 2/[…] group and 0.4 mg bone morphogenetic protein-2 active peptide 3/collagen sponge group, and the control group is using pure collagen sponge.
The anesthesia of rats is achieved by ketamine intraperitoneal injection. For two experimental groups, 0.4 mg bone morphogenetic protein-2 active peptide 1/collagen sponge and 0.4 mg bone morphogenetic protein-2 active peptide 2/collagen sponge are respectively implanted with 1 cm incision in the sacral spine muscles on the back. For […], pure collagen sponge of the same size is implanted into the gaps along one side of sacral spine muscles. CT radiography inspection of three rats groups is done after implantation in the 3, 6, 8 weeks, and then four rats of each group are killed at each time point. Local tissues of implant materials are sampled, after fixation by formaldehyde and paraffin-embedded sections, and histological observation is done with HE staining.

Substance	ectopic osteogenesis by CT scan imaging	ectopic osteogenesis ability (overall result)	formation of new bone by histological examination (HE staining)
C16H31O—NH—CCCCGGGS^[PO4]KIPKASSVPTELSAISTLYL	significant ectopic osteogenesis	good ectopic osteogenesis ability	significant formation of new bone
CCCCDDDS^[PO4]KIPKASSVPTELSAISTLYL (CCCCDDD[pS]KIPKASSVPTELSAISTLYL; cysteine pairing not given here)	significant ectopic osteogenesis	good ectopic osteogenesis ability	significant formation of new bone
S^[PO4]KIPKASSVPTELSAISTLYLDDD ([pS]KIPKASSVPTELSAISTLYLDDD)	significant ectopic osteogenesis	good ectopic osteogenesis ability	significant formation of new bone
